target: T1, EGFR TMLRCS (Homo sapiens, UniProt P00533, C797S/L858R/T790M); assay: HTRF Phospho EGFR TMLRCS Assay (Cellular); type: cell-based; details: BaF3-TMLRCS cell line, 4 hours incubation, Phospho-EGFR HTRF readout
T1 construct: host or cells: BaF3-TMLRCS (Ba/F3 cells, kept under puromycin selection)
Method: HTRF Phospho EGFR TMLRCS Assay (Cellular)
BaF3-TMLRCS cell line were obtained from Crownbio (San Diego, CA, USA). Cells were maintained at 37° C., 5% CO2 in RPMI ATCC (Gibco 31870)+2 mM Glutamine+0.5 μg/ml Puromycin supplemented with 10% fetal bovine serum (FBS) (Gibco).
Cells are transferred as above to Greiner Bio-One, Nr. 784-08 micro-titerplate at 20000 cells/well in 12.5 μl of growth medium/well after the plates had been pre-filled with 12.5 nl of DMSO solutions of the to be tested compounds (in dose response) or DMSO only. After spinning the plates at 300×g for 30 seconds the cells were incubated for 4 hours at 37 C, 5% CO2, 95% humidity. The cells were lysed by adding to the compound mix 4 μl/well of the supplemented lysis buffer (Cis-bio, Phospho-EGFR HTRF kit, 64EG1PEH), followed by incubation for 30 min at room temperature with shaking (400 rpm). The plates were then frozen and stored overnight at −80 C. On the next day and after thawing the plates, 4 μl of a mixture of anti-Phospho-EGFR Cryptate and of anti-Phospho-EGFR-d2 antibody solutions prepared in the supplied detection buffer was added to each well. The lidded plates were then incubated for 4 h at room temperature before reading the fluorescence emission at 616 and 665 nm using an Envision reader (Perkin Elmer). Data was analyzed in similar fashion as above using the normalized ratio of the 665 to 616 signals multiplied by 10000.

T1 sequence (P00533 25-1210 T790M/C797S/L858R): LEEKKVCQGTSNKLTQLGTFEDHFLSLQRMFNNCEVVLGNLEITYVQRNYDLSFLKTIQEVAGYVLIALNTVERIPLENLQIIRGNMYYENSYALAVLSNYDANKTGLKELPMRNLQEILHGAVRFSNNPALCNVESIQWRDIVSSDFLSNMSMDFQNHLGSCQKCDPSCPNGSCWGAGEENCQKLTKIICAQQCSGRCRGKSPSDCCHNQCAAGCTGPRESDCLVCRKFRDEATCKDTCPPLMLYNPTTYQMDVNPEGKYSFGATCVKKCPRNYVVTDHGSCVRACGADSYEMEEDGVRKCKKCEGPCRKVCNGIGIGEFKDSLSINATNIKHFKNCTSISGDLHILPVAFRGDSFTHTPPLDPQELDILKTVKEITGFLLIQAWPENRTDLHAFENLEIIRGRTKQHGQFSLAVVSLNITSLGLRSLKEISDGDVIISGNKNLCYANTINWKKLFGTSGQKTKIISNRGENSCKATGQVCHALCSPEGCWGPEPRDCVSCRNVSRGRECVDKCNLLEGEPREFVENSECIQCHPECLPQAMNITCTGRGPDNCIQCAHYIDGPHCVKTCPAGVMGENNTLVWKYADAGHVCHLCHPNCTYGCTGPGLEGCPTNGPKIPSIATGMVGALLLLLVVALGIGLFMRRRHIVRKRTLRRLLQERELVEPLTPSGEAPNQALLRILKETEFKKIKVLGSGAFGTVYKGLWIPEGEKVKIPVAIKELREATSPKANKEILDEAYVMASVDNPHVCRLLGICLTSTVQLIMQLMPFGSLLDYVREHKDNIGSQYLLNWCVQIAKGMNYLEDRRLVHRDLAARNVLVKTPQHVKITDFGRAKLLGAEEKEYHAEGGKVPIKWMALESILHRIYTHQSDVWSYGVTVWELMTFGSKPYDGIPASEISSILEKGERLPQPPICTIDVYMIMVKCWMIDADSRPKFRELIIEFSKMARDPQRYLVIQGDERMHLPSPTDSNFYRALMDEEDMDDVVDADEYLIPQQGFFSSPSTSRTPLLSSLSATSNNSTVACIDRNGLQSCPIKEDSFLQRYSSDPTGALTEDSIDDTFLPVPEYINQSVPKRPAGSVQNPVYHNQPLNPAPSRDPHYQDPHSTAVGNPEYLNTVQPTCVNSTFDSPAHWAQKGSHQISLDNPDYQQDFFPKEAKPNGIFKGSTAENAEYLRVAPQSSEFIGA

Q: For `O=C(Nc1nccs1)C(c1ncn2c1C[C@@H](F)C2)n1cc2c(Cl)cc(-c3ccc(N4CC(CN5CCC(CO)CC5)C4)cc3)c(Cl)c2n1` (mixture of isomers) [Example 59, rac-2-(4,7-Dichloro-6-(4-(3-((4-(hydroxymethyl)piperidin-1-yl)methyl)azetidinyl)phenyl)-2H-indazol-2-yl)-2-((R)-6-fluoro-6,7-dihydro-5H-pyrrolo[1,2-c]imidazol-1-yl)-N-(thiazol-2-yl)acetamide], which IC50 is on record?
A: Its IC50 is 5 nM.

Q: With `CC(O)C1CCN(CCc2ccc(-c3cc(Cl)c4cn(C(C(=O)Nc5nccs5)c5ncn6c5C[C@@H](F)C6)nc4c3Cl)cc2)CC1` (mixture of isomers) [Example 60, rac-2-(4,7-Dichloro-6-(4-(2-(4-(1-hydroxyethyl)piperidin-1-yl)ethyl)phenyl)-2H-indazol-2-yl)-2-((R)-6-fluoro-6,7-dihydro-5H-pyrrolo[1,2-c]imidazol-1-yl)-N-(thiazol-2-yl)acetamide] as the molecule, how does the IC50 read?
A: Its IC50 is 9 nM.

Q: `O=C(Nc1nccs1)C(c1ncn2c1C[C@@H](F)C2)n1cc2c(Cl)cc(-c3ccc(N4CCN(CCO)CC4)cc3)c(Cl)c2n1` (mixture of isomers) [Example 61, rac-2-(4,7-Dichloro-6-(4-(4-(2-hydroxyethyl)piperazin-1-yl)phenyl)-2H-indazol-2-yl)-2-((R)-6-fluoro-6,7-dihydro-5H-pyrrolo[1,2-c]imidazol-1-yl)-N-(thiazol-2-yl)acetamide] was tested. Which IC50 did it give?
A: Its IC50 is 3 nM.

Q: `O=C(Nc1nccs1)C(c1ncn2c1C[C@@H](F)C2)n1cc2c(Cl)cc(-c3ccc(CN4CC5(CC(O)C5)C4)cc3)c(Cl)c2n1` (mixture of isomers) [Example 62, rac-2-(4,7-Dichloro-6-(4-((6-hydroxy-2-azaspiro[3.3]heptan-2-yl)methyl)phenyl)-2H-indazol-2-yl)-2-((R)-6-fluoro-6,7-dihydro-5H-pyrrolo[1,2-c]imidazol-1-yl)-N-(thiazol-2-yl)acetamide] was tested. Which IC50 did it give?
A: The IC50 was 8 nM.

Q: `O=C(Nc1nccs1)C(c1ncn2c1C[C@@H](F)C2)n1cc2c(Cl)cc(-c3ccc(CN4CC5(COC5)C4)cc3)c(Cl)c2n1` (mixture of isomers) [Example 63, rac-2-(6-(4-((2-Oxa-6-azaspiro[3.3]heptan-6-yl)methyl)phenyl)-4,7-dichloro-2H-indazol-2-yl)-2-((R)-6-fluoro-6,7-dihydro-5H-pyrrolo[1,2-c]imidazol-1-yl)-N-(thiazol-2-yl)acetamide] was tested. Which IC50 did it give?
A: The IC50 was 5 nM.

Q: `O=C(Nc1nccs1)C(c1ncn2c1C[C@@H](F)C2)n1cc2c(Cl)cc(-c3ccc(CCN4CCC(O)CC4)cc3)c(Cl)c2n1` (mixture of isomers) [Example 64, rac-2-(4,7-Dichloro-6-(4-(2-(4-hydroxypiperidin-1-yl)ethyl)phenyl)-2H-indazol-2-yl)-2-((R)-6-fluoro-6,7-dihydro-5H-pyrrolo[1,2-c]imidazol-1-yl)-N-(thiazol-2-yl)acetamide] was tested. Which IC50 did it give?
A: Its IC50 is 7 nM.

Q: Which IC50 does the source give for `O=C(Nc1nccs1)C(c1ncn2c1C[C@@H](F)C2)n1cc2c(Cl)cc(-c3ccc(N4CCN(C5CC(O)C5)CC4)cc3)c(Cl)c2n1` (mixture of isomers) [Example 66, rac-2-(4,7-Dichloro-6-(4-(4-(3-hydroxycyclobutyl)piperazin-1-yl)phenyl)-2H-indazol-2-yl)-2-((R)-6-fluoro-6,7-dihydro-5H-pyrrolo[1,2-c]imidazol-1-yl)-N-(thiazol-2-yl)acetamide] here?
A: The IC50 was 2 nM.

Q: `O=C(Nc1nccs1)C(c1ncn2c1C[C@@H](F)C2)n1cc2c(Cl)cc(-c3ccc(N4CCOC(CO)C4)cc3)c(Cl)c2n1` (mixture of isomers) [Example 67, rac-2-(4,7-Dichloro-6-(4-(2-(hydroxymethyl)morpholino)phenyl)-2H-indazol-2-yl)-2-((R)-6-fluoro-6,7-dihydro-5H-pyrrolo[1,2-c]imidazol-1-yl)-N-(thiazol-2-yl)acetamide] was tested. Which IC50 did it give?
A: Its IC50 is 3 nM.

Q: For `O=C(Nc1nccs1)C(c1ncn2c1C[C@@H](F)C2)n1cc2c(Cl)cc(-c3ccc(OCCN4CCC(CO)CC4)cc3)c(Cl)c2n1` (mixture of isomers) [Example 68, rac-2-(4,7-Dichloro-6-(4-(2-(4-(hydroxymethyl)piperidin-1-yl)ethoxy)phenyl)-2H-indazol-2-yl)-2-((R)-6-fluoro-6,7-dihydro-5H-pyrrolo[1,2-c]imidazol-1-yl)-N-(thiazol-2-yl)acetamide], which IC50 is on record?
A: The IC50 was 4 nM.

Q: With `O=C(Nc1nccs1)C(c1ncn2c1C[C@@H](F)C2)n1cc2c(Cl)cc(-c3ccc(CCN4CCC(O)C4)cc3)c(Cl)c2n1` (mixture of isomers) [Example 70, rac-2-(4,7-Dichloro-6-(4-(2-(3-hydroxypyrrolidin-1-yl)ethyl)phenyl)-2H-indazol-2-yl) ((R)-6-fluoro-6,7-dihydro-5H-pyrrolo[1,2-c]imidazol-1-yl)-N-(thiazol-2-yl)acetamide] as the molecule, how does the IC50 read?
A: Its IC50 is 8 nM.

Q: How did the IC50 turn out when `CC(O)CN1CCN(c2ccc(-c3cc(Cl)c4cn(C(C(=O)Nc5nccs5)c5ncn6c5C[C@@H](F)C6)nc4c3Cl)cc2)CC1` (mixture of isomers) [Example 71, rac-2-(4,7-Dichloro-6-(4-(4-(2-hydroxypropyl)piperazin-1-yl)phenyl)-2H-indazol-2-yl)-2-((R)-6-fluoro-6,7-dihydro-5H-pyrrolo[1,2-c]imidazol-1-yl)-N-(thiazol-2-yl)acetamide] was run?
A: Its IC50 is 8 nM.

Q: `O=C(Nc1nccs1)C(c1ncn2c1C[C@@H](F)C2)n1cc2c(Cl)cc(-c3ccc(N4CCN5CCC4C5)cc3)c(Cl)c2n1` (mixture of isomers) [Example 72, rac-2-(6-(4-(1,4-Diazabicyclo[3.2.1]octan-4-yl)phenyl)-4,7-dichloro-2H-indazol-2-yl)-2-((R)-6-fluoro-6,7-dihydro-5H-pyrrolo[1,2-c]imidazol-1-yl)-N-(thiazol-2-yl)acetamide] was tested. Which IC50 did it give?
A: Its IC50 is 5 nM.

Q: How did the IC50 turn out when `O=C(Nc1nccs1)C(c1ncn2c1C[C@@H](F)C2)n1cc2c(Cl)cc(-c3ccc(N4CCC(CN5CCC(O)C5)CC4)cc3)c(Cl)c2n1` (mixture of isomers) [Example 74, rac-2-(4,7-Dichloro-6-(4-(4-((3-hydroxypyrrolidin-1-yl)methyl)piperidin-1-yl)phenyl)-2H-indazol-2-yl)-2-((R)-6-fluoro-6,7-dihydro-5H-pyrrolo[1,2-c]imidazol-1-yl)-N-(thiazol-2-yl)acetamide] was run?
A: The IC50 was 12 nM.

Q: With `O=C(Nc1nccs1)C(c1ncn2c1C[C@@H](F)C2)n1cc2c(Cl)cc(-c3ccc(C4CC(CN5CCC(CO)CC5)C4)cc3)c(Cl)c2n1` (mixture of isomers) [Example 75, rac-2-(4,7-Dichloro-6-(4-(34(4-(hydroxymethyl)piperidin-1-yl)methyl)cyclobutyl)phenyl)-2H-indazol-2-yl)-2-((R)-6-fluoro-6,7-dihydro-5H-pyrrolo[1,2-c]imidazol-1-yl)-N-(thiazol-2-yl)acetamide] as the molecule, how does the IC50 read?
A: The IC50 was 8 nM.

Q: With `O=C(Nc1nccs1)C(c1ncn2c1C[C@@H](F)C2)n1cc2c(Cl)cc(-c3ccc(C4CC(CN5CCC(O)CC5)C4)cc3)c(Cl)c2n1` (mixture of isomers) [Example 76, rac-2-(4,7-Dichloro-6-(4-(34(4-hydroxypiperidin-1-yl)methyl)cyclobutyl)phenyl)-2H-indazol-2-yl)-2-((R)-6-fluoro-6,7-dihydro-5H-pyrrolo[1,2-c]imidazol-1-yl)-N-(thiazol-2-yl)acetamide] as the molecule, how does the IC50 read?
A: The IC50 was 11 nM.

Q: `O=C(Nc1nccs1)C(c1ncn2c1C[C@@H](F)C2)n1cc2c(Cl)cc(-c3ccc(OCCN4CCC(O)CC4)cc3)c(Cl)c2n1` (mixture of isomers) [Example 77, rac-2-(4,7-Dichloro-6-(4-(2-(4-hydroxypiperidin-1-yl)ethoxy)phenyl)-2H-indazol-2-yl)-2-((R)-6-fluoro-6,7-dihydro-5H-pyrrolo[1,2-c]imidazol-1-yl)-N-(thiazol-2-yl)acetamide] was tested. Which IC50 did it give?
A: Its IC50 is 1 nM.

Q: Which IC50 does the source give for `CC(CCO)N1CCC(Oc2ccc(-c3cc(Cl)c4cn(C(C(=O)Nc5nccs5)c5ncn6c5C[C@@H](F)C6)nc4c3Cl)cc2)CC1` (mixture of isomers) [Example 86, 2-[4,7-Dichloro-6-[4-[[1-(3-hydroxy-1-methyl-propyl)-4-piperidyl]oxy]phenyl]indazol-2-yl]-2-[rac-(6R)-6-fluoro-6,7-dihydro-5H-pyrrolo[1,2-c]imidazol-1-yl]-N-thiazol-2-yl-acetamide] here?
A: Its IC50 is 6 nM.

Q: Which IC50 does the source give for `O=C(Nc1nccs1)C(c1ncn2c1C[C@@H](F)C2)n1cc2c(Cl)cc(-c3ccc(C4CCN(C5CC(O)C5)CC4)cc3)c(Cl)c2n1` (mixture of isomers) [Example 87, rac-2-(4,7-Dichloro-6-(4-(1-(3-hydroxycyclobutyl)piperidin-4-yl)phenyl)-2H-indazol-2-yl)-2-((R)-6-fluoro-6,7-dihydro-5H-pyrrolo[1,2-c]imidazol-1-yl)-N-(thiazol-2-yl)acetamide] here?
A: The IC50 was 9 nM.

Q: With `O=C(Nc1nccs1)C(c1ncn2c1C[C@@H](F)C2)n1cc2c(Cl)cc(-c3ccc(CN4CCC5(CC4)CC(O)C5)cc3)c(Cl)c2n1` (mixture of isomers) [Example 91, rac-2-(4,7-Dichloro-6-(4-((2-hydroxy-7-azaspiro[3.5]nonan-7-yl)methyl)phenyl)-2H-indazol-2-yl)-2-((R)-6-fluoro-6,7-dihydro-5H-pyrrolo[1,2-c]imidazol-1-yl)-N-(thiazol-2-yl)acetamide] as the molecule, how does the IC50 read?
A: The IC50 was 8 nM.
